This experiment in a line: Inhibition Assay: To determine whether compounds were selective for TRPV3 inhibition over inhibition of other ion channel types, the human ERG (hERG), NaV1.2, and TRPV1 (hTRPV1) channels and the rat TRPV6 (rTRPV6) channel were also stably transfected and expressed or induced to express in mammalian cell lines. The methods for measuring currents from these channels are well-established and have been described in numerous publications (See, Weerapura et al., 2002, J Physiology 540: 15-27; Rush et al., 2005, J Physiology 564: 808-815; Caterina et al., 1997, Nature 389: 816-824; Hoenderhop et al., 2001, J Physiology 537: 747-761; Clapham et al., 2003, Pharmacol Rev 55: 591-596). Background: Block of hERG is tested as a sign of cardiac risk.

A word on the IC50: it is the point on the concentration scale where inhibition reaches its midpoint. Higher therefore signals weaker potency in that assay. With `Cc1cccc2c1N(C(=O)CSc1ccc(Cl)cn1)CCC2`, the IC50 was over 30 µM.

The values above are taken from ChEMBL document CHEMBL3886344, “Compounds of modulating TRPV3 function” (2015).
